{
  "source": "patent US8314150B2",
  "about": "“Kinase protein binding inhibitors” (priority 2008, dated 2012)",
  "key": {"[1]": {"tested_on": "total FAK phosphorylation", "assay": "FAK immunoprecipitation and Western blotting with P-tyrosine antibody, BT474", "type": "cell-based", "conditions": "IP with FAK antibody", "method": "(§1) Cell Viability Assay—The Cells were treated with peptides for 24 hours at different peptide concentrations. The 3-(4,5-dimethylthiazol-2-yl)-5-(3-carboxymethoxyphenyl)-2-(4-sulfophenyl)-2H-tetrazolium compound from Promega Viability kit (Madison, Ill.) was added, and the cells were incubated at 37° C. for 1-2 hours. The optical density on 96-plate was analyzed with a microplate reader at 490 nm to determine cell viability. In addition, cells were stained with trypan blue after 24 hours of treatment with Y15 and the percent of cells that stained positive were determined with a hemacytometer. […] Then 2% SDS was added to the dried plated and OD at 590 nm was measured for detecting cell adhesion. […] Protein concentrations were determined using a Bio-Rad Kit. The boiled samples were loaded on Ready SDS-10% PAGE gels (Bio Rad, Inc) and used for Western blot analysis with the protein-specific antibody. […] Detachment Assay—Cells were plated with and without inhibitors for 24 hours, and detached and attached cells were counted in a hemocytometer. We calculated the percent of detachment by dividing the number of detached cells by the total number of cells. The percent of detached cells was calculated in three independent experiments. […] For each experiment 300 cells per treatment were counted. […]"}, "ERK1/2 phosphorylation": {"tested_on": "ERK1/2 phosphorylation", "assay": "ERK1/2 phosphorylation in pancreatic cancer cells", "type": "cell-based, human", "conditions": "dose dependent", "method": "as §1"}, "[2]": {"assay": "Tolerability in nude mice in tumor growth inhibition experiments", "type": "in vivo", "method": "as §1"}},
  "data": [
    {"smiles": "Cl.Cl.Cl.Cl.Nc1cc(N)c(N)cc1N", "note": "[Y15, 1,2,4,5-benzenetetraamine tetrahydrochloride]", "values": [
      {"measurement": "total FAK phosphorylation (P-tyrosine)", "setting": "[1]", "result": "blocked total phosphorylation of FAK"},
      {"measurement": "p-ERK", "setting": "ERK1/2 phosphorylation", "result": "down regulated"},
      {"measurement": "optimal non-toxic dose", "setting": "[2]; IP, nude mice", "result": 30, "unit": "mg/kg"},
      {"measurement": "animal weight loss or death", "setting": "[2]; intraperitoneal 30 mg/kg, 5 days/week, 36 days", "result": "No animal weight loss or death was observed"}
    ]}
  ]
}
